Six molecules from patent US20020168417A1, “Agrochemical compositions and surfactant compounds” (priority 1999, published 2002) can be followed below.

Like-named read-outs stand apart in the source and are kept apart here.

For data set [1] the following is noted: in vivo.
Experimental: (§1) The irritancy of the products of some of the synthesis examples (if necessary after purification) was tested using standard testing protocols.
The conditions of data set [2]: in vivo. This is another data set of the same source.
Experimental: as §1
The test system of a further data set is Daphnia magna. The data set is described as follows: aquatic toxicity to Daphnia magna, standard bio-assay. It counts as in vivo. As to conditions: end of the 48 hour assay procedure. The text has this: The results are given below:
Data set [3] has as its system fungal leaf rust (Puccinia recondite). Put plainly: AE5 field trial, tebuconazole fungicide with adjuvant on winter wheat leaf rust. Type of data set: in vivo. As to conditions: infected leaf area. On the procedure:
Field trials were carried out to test the effectiveness of fungicide on winter wheat (variety Versailles) using the active Horizon EW (tebuconazole) (250 g.I^−1) in the control of fungal leaf rust (Puccinia recondite). The plots were sprayed at a spray volume 300 I.ha^−1, with the adjuvants added as tank mix additives at a concentration of 0.1% weightivolume on the spray. The normal application rate (NAR) for Horizon alone is 1 I.ha^−1 (250 g.ha^−1) and this was used as a control together with 0.75 I.ha^−1 (187.5 g.ha^−1; […]). An untreated control was also included. For these trials, adjuvant containing formulations were at ¾ NAR for the active and 0.1% weight/volume (300 g.ha^−1) adjuvant The effect of the spraying was assessed 3 weeks after treatment and is expressed as % infected leaf area (2 and 3 top leaves).

Data set [4] in a line: irritancy, standard testing protocols: eye. As to conditions: in vivo.
Experimental: as §1
A short description of data set [5]: irritancy, standard testing protocols: skin. As to conditions: in vivo.
Experimental: as §1
The mark [6] stands for this setting: tebuconazole 187.5 g · ha^−1, adjuvant (where used) 300 g · ha^−1, 3 weeks after treatment.
The mark [7] stands for this setting: tebuconazole 250 g · ha^−1, adjuvant (where used) 300 g · ha^−1, 3 weeks after treatment.

Take “1-(N,N-bis(N-1-deoxyglucitylamino)amonium)-2-hydroxy-3-dodecyloxy Propane Sulphate [SE25]”: in data set [1], the “Irritation assessment Eye” value is listed as “moderate”. In addition, in data set [2], the “Irritation assessment Skin” value is on record as “slight”.

As to “1-(N-1-deoxyglucitylamino)2-hydroxyl-3-(branched octadecyloxy poly-10PO-10EO) propane [SE21]”, the “EC50 for immobilising the Daphnia” value in the data set with Daphnia magna amounted to 31.4 mg.I^−1. Moreover, the “Irritation assessment Eye” value in data set [1] is “practically none/slight”. In addition, the “Irritation assessment Skin” value in data set [2] is given as “slight/moderate”.

On to `CC(C)(C)C(O)(CCc1ccc(Cl)cc1)Cn1cncn1` (racemic) [tebuconazole, (RS)1-p-chlorophenyl4,4-dimethyl-3-(1H-1,2,4triazole-1-ylmethyl)-pentan-3ol], for which, in data set [3] (setting [6]), the “% infected 2 leaf” value was 2.5% and the “% infected 3 leaf” value is reported as 10%. In addition, in data set [3] (setting [7]), the “% infected 2 leaf” value is 2.5% and the “% infected 3 leaf” value is listed as 2.5%.

With `CCCCCCCCCCOCC(O)CN(C)C[C@H](O)[C@@H](O)[C@H](O)[C@H](O)CO` (some centres unmarked) [SE10, 1-(N-methyl-N-1-deoxyglucitylamino)2-hydroxy-3-decyloxy propane], the “Irritation assessment Eye” value in data set [1] was “moderate/severe”. In addition, the “Irritation assessment Skin” value in data set [2] is “practically none”.

For `CCCCCCCCCCCCCCOCC(O)CN(CC(O)C(O)C(O)C(O)CO)CC(O)C(O)C(O)C(O)CO` (centres unmarked) [SE20, 1-(N-bis-sorbitylamino)2-hydroxyl-3-tetradecyloxy propane], in the data set on Daphnia magna, the “EC50 for immobilising the Daphnia” value is recorded as greater than 100 mg.I^−1.

On to “Betaine from 1-(N-1-deoxyglucitylamino)-2-hydroxy-3-dodecyloxy Propane [SE23]”, for which the “Irritation assessment Eye” value in data set [4] is “moderate”. Further, in data set [5], the “Irritation assessment Skin” value is recorded as “slight”.
